Laboratory results taken from publication PMC6072100, “Exploring the links between peptoid antibacterial activity and toxicity” (MedChemComm, 2017).
Where “and” joins values, the source holds several entries; their conditions need not be identical. Equal entries are not always repeated. Where two headings read alike, the source gives them in different places. Square brackets hold non-standard residues; d marks the D form. Peptide text beside a SMILES is read from it. Gly(Nα-4-Cl-benzyl) = O=C(O)CNCc1ccc(Cl)cc1; N(4-F-Bzl)Gly = O=C(O)CNCc1ccc(F)cc1; Gly(N-2-aminoethyl) = NCCNCC(=O)O; Nspe = C[C@H](NCC(=O)O)c1ccccc1; Nlys = NCCCCNCC(=O)O

Experiments:
Format in all cases: cell-based
[1] = test system: Staphylococcus epidermidis (laboratory strain from clinical isolate); settings: for MIC S. epidermidis: 16 h
Procedure, shortened: (§1)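 Read-out was absorbance after 16 h shaking incubation at 37 °C. Inoculum: Iso-sensitest broth culture at A650nm 0.07, diluted ten-fold; peptoids tested at final 2–100 µM in twofold steps. Triplicate wells.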

[2] = test system: Pseudomonas aeruginosa PA01 (ATCC 15692)
Procedure, shortened: as §1

[3] = test system: Escherichia coli K-12 wild-type strain (W3110/ATCC27325); settings: for MIC E. coli: lowest concentration completely inhibiting growth, 37 °C, 16 h, range 2–100 μM
Procedure, shortened: as §1

[4] = test system: Staphylococcus aureus (3R7089 strain Oxford/ATCC9144)
Procedure, shortened: as §1

[5] = lowest concentration completely inhibiting growth, 37 °C, range 2–100 μM
[6] = lowest concentration completely inhibiting growth, 37 °C, 16 h, range 2–100 μM
[7] = laboratory strain from clinical isolate

Row | Compound | MIC S. epidermidis [1, 5] | MIC P. aeruginosa [2, 6] | MIC E. coli [3] | MIC S. aureus [4, 6] | sensitivity of S. epidermidis (in words) ([1]; compared with the other bacteria tested) | MIC P. aeruginosa ([2]; ATCC 15692, 16 h) | MIC S. aureus ([4]; ATCC9144, 16 h) | activity against E. coli (in words) [3] | MIC S. epidermidis [1, 7] | activity against P. aeruginosa (in words) [2]
1 | C[C@@H](c1ccccc1)N(CC(N)=O)C(=O)CN(C(=O)CN(CCCCN)C(=O)CN(C(=O)CN(C(=O)CN(CCCCN)C(=O)CN(C(=O)CN(C(=O)CNCCCCN)[C@@H](C)c1ccccc1)[C@@H](C)c1ccccc1)[C@@H](C)c1ccccc1)[C@@H](C)c1ccccc1)[C@@H](C)c1ccccc1 [Peptoid 14, (NLysNspeNspe)3] (H-[Nlys][Nspe][Nspe][Nlys][Nspe][Nspe][Nlys][Nspe][Nspe]-NH2) | 2 µM | >100 µM | 13 µM | 2 µM |  |  |  |  |  | 
2 | C[C@@H](c1ccccc1)N(CC(N)=O)C(=O)CN(C(=O)CN(CCCCN)C(=O)CN(C(=O)CN(C(=O)CNCCCCN)[C@@H](C)c1ccccc1)[C@@H](C)c1ccccc1)[C@@H](C)c1ccccc1 [Peptoid 15, (NLysNspeNspe)2] (H-[Nlys][Nspe][Nspe][Nlys][Nspe][Nspe]-NH2) | 25 µM | 100 µM | >100 µM | 100 µM | some increased sensitivity | >100 µM | >100 µM |  |  | 
3 | C[C@@H](c1ccccc1)N(CC(N)=O)C(=O)CN(C(=O)CN(CCN)C(=O)CN(C(=O)CN(C(=O)CN(CCN)C(=O)CN(C(=O)CN(C(=O)CN(CCN)C(=O)CN(C(=O)CN(C(=O)CNCCN)[C@@H](C)c1ccccc1)[C@@H](C)c1ccccc1)[C@@H](C)c1ccccc1)[C@@H](C)c1ccccc1)[C@@H](C)c1ccccc1)[C@@H](C)c1ccccc1)[C@@H](C)c1ccccc1 [Peptoid 16, (NaeNspeNspe)4] (H-[Gly(N-2-aminoethyl)][Nspe][Nspe][Gly(N-2-aminoethyl)][Nspe][Nspe][Gly(N-2-aminoethyl)][Nspe][Nspe][Gly(N-2-aminoethyl)][Nspe][Nspe]-NH2) | 2 µM | 50 µM | 100 µM and > 100 µM | 2 µM |  |  |  | negligible activity |  | 
4 | C[C@@H](c1ccccc1)N(CC(N)=O)C(=O)CN(C(=O)CN(CCN)C(=O)CN(C(=O)CN(C(=O)CN(CCN)C(=O)CN(C(=O)CN(C(=O)CNCCN)[C@@H](C)c1ccccc1)[C@@H](C)c1ccccc1)[C@@H](C)c1ccccc1)[C@@H](C)c1ccccc1)[C@@H](C)c1ccccc1 [Peptoid 17, (NaeNspeNspe)3] | 13 µM | 100 µM and > 100 µM | 25 µM | 2 µM |  |  |  |  |  | 
5 | C[C@@H](c1ccccc1)N(CC(N)=O)C(=O)CN(C(=O)CN(CCN)C(=O)CN(C(=O)CN(C(=O)CNCCN)[C@@H](C)c1ccccc1)[C@@H](C)c1ccccc1)[C@@H](C)c1ccccc1 [Peptoid 18, (NaeNspeNspe)2] | 100 µM | 100 µM | >100 µM | 100 µM |  | >100 µM | >100 µM |  | >100 µM | 
6 | COc1ccc(CN(CC(N)=O)C(=O)CN(Cc2ccc(OC)cc2)C(=O)CN(CCCCN)C(=O)CN(Cc2ccc(OC)cc2)C(=O)CN(Cc2ccc(OC)cc2)C(=O)CN(CCCCN)C(=O)CN(Cc2ccc(OC)cc2)C(=O)CN(Cc2ccc(OC)cc2)C(=O)CN(CCCCN)C(=O)CN(Cc2ccc(OC)cc2)C(=O)CN(Cc2ccc(OC)cc2)C(=O)CNCCCCN)cc1 [Peptoid 19, (NLysNpmbNpmb)4] | 2 µM | 100 µM | >100 µM | 3 µM |  | >100 µM |  | negligible effect |  | negligible effect
7 | NCCCCNCC(=O)N(CC(=O)N(CC(=O)N(CCCCN)CC(=O)N(CC(=O)N(CC(=O)N(CCCCN)CC(=O)N(CC(=O)N(CC(=O)N(CCCCN)CC(=O)N(CC(=O)N(CC(N)=O)Cc1ccc(Cl)cc1)Cc1ccc(Cl)cc1)Cc1ccc(Cl)cc1)Cc1ccc(Cl)cc1)Cc1ccc(Cl)cc1)Cc1ccc(Cl)cc1)Cc1ccc(Cl)cc1)Cc1ccc(Cl)cc1 [Peptoid 20, (NLysNpcbNpcb)4] (H-[Nlys][Gly(Nα-4-Cl-benzyl)][Gly(Nα-4-Cl-benzyl)][Nlys][Gly(Nα-4-Cl-benzyl)][Gly(Nα-4-Cl-benzyl)][Nlys][Gly(Nα-4-Cl-benzyl)][Gly(Nα-4-Cl-benzyl)][Nlys][Gly(Nα-4-Cl-benzyl)][Gly(Nα-4-Cl-benzyl)]-NH2) | 6 µM | 100 µM | 100 µM and > 100 µM | 25 µM |  | >100 µM |  |  |  | 
8 | NCCCCNCC(=O)N(CC(=O)N(CC(=O)N(CCCCN)CC(=O)N(CC(=O)N(CC(=O)N(CCCCN)CC(=O)N(CC(=O)N(CC(N)=O)Cc1ccc(Cl)cc1)Cc1ccc(Cl)cc1)Cc1ccc(Cl)cc1)Cc1ccc(Cl)cc1)Cc1ccc(Cl)cc1)Cc1ccc(Cl)cc1 [Peptoid 21, (NLysNpcbNpcb)3] (H-[Nlys][Gly(Nα-4-Cl-benzyl)][Gly(Nα-4-Cl-benzyl)][Nlys][Gly(Nα-4-Cl-benzyl)][Gly(Nα-4-Cl-benzyl)][Nlys][Gly(Nα-4-Cl-benzyl)][Gly(Nα-4-Cl-benzyl)]-NH2) | 2 µM | 25 µM | 50 µM | 3 µM |  |  |  |  |  | 
9 | NCCCCNCC(=O)N(CC(=O)N(CC(=O)N(CCCCN)CC(=O)N(CC(=O)N(CC(=O)N(CCCCN)CC(=O)N(CC(=O)N(CC(=O)N(CCCCN)CC(=O)N(CC(=O)N(CC(N)=O)Cc1ccc(F)cc1)Cc1ccc(F)cc1)Cc1ccc(F)cc1)Cc1ccc(F)cc1)Cc1ccc(F)cc1)Cc1ccc(F)cc1)Cc1ccc(F)cc1)Cc1ccc(F)cc1 [Peptoid 22, (NLysNpfbNpfb)4] (H-[Nlys][N(4-F-Bzl)Gly][N(4-F-Bzl)Gly][Nlys][N(4-F-Bzl)Gly][N(4-F-Bzl)Gly][Nlys][N(4-F-Bzl)Gly][N(4-F-Bzl)Gly][Nlys][N(4-F-Bzl)Gly][N(4-F-Bzl)Gly]-NH2) | 1 µM | 25 µM | 13 µM | 2 µM |  |  | 2 µM |  |  | 
10 | NCCCCNCC(=O)N(CC(=O)N(CC(=O)N(CCCCN)CC(=O)N(CC(=O)N(CC(=O)N(CCCCN)CC(=O)N(CC(=O)N(CC(N)=O)Cc1ccc(F)cc1)Cc1ccc(F)cc1)Cc1ccc(F)cc1)Cc1ccc(F)cc1)Cc1ccc(F)cc1)Cc1ccc(F)cc1 [Peptoid 23, (NLysNpfbNpfb)3] (H-[Nlys][N(4-F-Bzl)Gly][N(4-F-Bzl)Gly][Nlys][N(4-F-Bzl)Gly][N(4-F-Bzl)Gly][Nlys][N(4-F-Bzl)Gly][N(4-F-Bzl)Gly]-NH2) | 3 µM | 25 µM | 13 µM | 3 µM |  |  |  |  |  | 
11 | NCCCCNCC(=O)N(CC(=O)N(CC(=O)N(CCCCN)CC(=O)N(CC(=O)N(CC(=O)N(CCCCN)CC(=O)N(CC(=O)N(CC(=O)N(CCCCN)CC(=O)N(CC(=O)N(CC(N)=O)Cc1cccc(F)c1)Cc1cccc(F)c1)Cc1cccc(F)c1)Cc1cccc(F)c1)Cc1cccc(F)c1)Cc1cccc(F)c1)Cc1cccc(F)c1)Cc1cccc(F)c1 [Peptoid 24, (NLysNmfbNmfb)4] | 3 µM | 25 µM | 25 µM | 6 µM |  |  |  |  |  | 
12 | NCCCCNCC(=O)N(CC(=O)N(CC(=O)N(CCCCN)CC(=O)N(CC(=O)N(CC(=O)N(CCCCN)CC(=O)N(CC(=O)N(CC(N)=O)Cc1cccc(F)c1)Cc1cccc(F)c1)Cc1cccc(F)c1)Cc1cccc(F)c1)Cc1cccc(F)c1)Cc1cccc(F)c1 [Peptoid 25, (NLysNmfbNmfb)3] | 2 µM | 25 µM | 13 µM | 6 µM |  |  |  |  |  | 
13 | C[C@@H](c1ccccc1)N(CC(N)=O)C(=O)CN(Cc1ccc(F)cc1)C(=O)CN(CCCCN)C(=O)CN(C(=O)CN(Cc1ccc(F)cc1)C(=O)CN(CCCCN)C(=O)CN(C(=O)CN(Cc1ccc(F)cc1)C(=O)CN(CCCCN)C(=O)CN(C(=O)CN(Cc1ccc(F)cc1)C(=O)CNCCCCN)[C@@H](C)c1ccccc1)[C@@H](C)c1ccccc1)[C@@H](C)c1ccccc1 [Peptoid 26, (NLysNpfbNspe)4] | 2 µM | 13 µM | 13 µM | 2 µM |  |  |  |  |  | 
14 | C[C@@H](c1ccccc1)N(CC(N)=O)C(=O)CN(Cc1ccc(F)cc1)C(=O)CN(CCCCN)C(=O)CN(C(=O)CN(Cc1ccc(F)cc1)C(=O)CN(CCCCN)C(=O)CN(C(=O)CN(Cc1ccc(F)cc1)C(=O)CNCCCCN)[C@@H](C)c1ccccc1)[C@@H](C)c1ccccc1 [Peptoid 27, (NLysNpfbNspe)3] | 2 µM | 25 µM | 25 µM | 3 µM |  |  |  |  |  | 
15 | C[C@@H](c1ccccc1)N(CC(N)=O)C(=O)CN(C(=O)CN(CCCCN)C(=O)CN(Cc1ccc(F)cc1)C(=O)CN(Cc1ccc(F)cc1)C(=O)CN(CCCCN)C(=O)CN(C(=O)CN(C(=O)CN(CCCCN)C(=O)CN(Cc1ccc(F)cc1)C(=O)CN(Cc1ccc(F)cc1)C(=O)CNCCCCN)[C@@H](C)c1ccccc1)[C@@H](C)c1ccccc1)[C@@H](C)c1ccccc1 [Peptoid 28, [(NLysNpfbNpfb)(NLysNspeNspe)]2] | 1 µM | 50 µM | 6 µM | 2 µM |  |  |  |  | < 1 µM | 
16 | C[C@@H](c1ccccc1)N(CC(N)=O)C(=O)CN(C(=O)CN(CCCCN)C(=O)CN(Cc1ccc(F)cc1)C(=O)CN(Cc1ccc(F)cc1)C(=O)CN(CCCCN)C(=O)CN(C(=O)CN(C(=O)CNCCCCN)[C@@H](C)c1ccccc1)[C@@H](C)c1ccccc1)[C@@H](C)c1ccccc1 [Peptoid 29, (NLysNspeNspe)(NLysNpfbNpfb)(NLysNspeNspe)] | 2 µM | 25 µM | 13 µM | 3 µM |  |  |  |  |  | 
